Source: US7179823B1, “5-membered n-heterocyclic compounds with hypoglycemic and hypolipidemic activity” (Takeda Pharmaceutical Company Limited, priority 1999, dated 2007)

Structure (SMILES)	melting point [°C]
O=C(O)CCc1cn(Cc2cc(OCc3csc(-c4ccccc4)n3)cc(OCc3csc(-c4ccccc4)n3)c2)cc1-c1ccccc1 [Example 266, 3-[1-[3,5-bis(2-phenyl-4-thiazolylmethoxy)benzyl]-4-phenyl-3-pyrrolyl]propionic acid]	78 to 79
CCOc1cc(Cn2cc(CCC(=O)O)c(-c3ccccc3)c2)cc(OCc2csc(-c3ccccc3)n2)c1 [Example 274, 3-[1-[3-ethoxy-5-(2-phenyl-4-thiazolylmethoxy)benzyl]-4-phenyl-3-pyrrolyl]propionic acid]	109 to 110
CCOc1cc(Cn2cc(CCC(=O)O)c(-c3ccccc3)c2)cc(OCc2csc(-c3cccs3)n2)c1 [Example 276, 3-[1-[3-ethoxy-5-[2-(2-thienyl)-4-thiazolylmethoxy)benzyl]-4-phenyl-3-pyrrolyl]propionic acid]	104 to 105
O=C(O)CCc1cn(Cc2ccc(OCc3ccc(-c4ccccc4)nc3)cc2)cc1-c1ccccc1 [Example 277, 3-[4-phenyl-1-[4-(6-phenyl-3-pyridylmethoxy)benzyl]-3-pyrrolyl]propionic acid]	185 to 186
O=C(O)CCc1cn(Cc2ccc(OCc3ccc(-c4ccccc4)cn3)cc2)cc1-c1ccccc1 [Example 279, 3-[1-[4-(5-phenyl-2-pyridylmethoxy)benzyl]-4-phenyl-3-pyrrolyl]propionic acid]	169 to 170
CCOC(=O)c1cn(Cc2ccc(OCc3ccccc3)cc2)nc1-c1ccc(F)cc1 [Example 280, ethyl 1-(4-benzyloxybenzyl)-3-(4-fluorophenyl)-1H-pyrazole-4-carboxylate]	103 to 104
CCOC(=O)/C=C/c1cn(Cc2ccc(OCc3ccccc3)cc2)nc1-c1ccc(F)cc1 [Example 281, ethyl (E)-3-[1-(4-benzyloxybenzyl)-3-(4-fluorophenyl)-1H-pyrazol-4-yl]propenoate]	113 to 114
CCOC(=O)/C=C/c1cn(Cc2ccc(OCc3ccccc3)cc2)nc1-c1ccccc1 [Example 284, ethyl (E)-3-[1-(4-benzyloxybenzyl)-3-phenyl-1H-pyrazol-4-yl]propenoate]	94 to 95
O=C(O)CCc1cn(Cc2ccc(OCc3ccc4ccccc4n3)cc2)nc1-c1ccccc1 [Example 285, 3-[3-phenyl-1-[4-(2-quinolylmethoxy)benzyl]-1H-pyrazol-4-yl]propionic acid]	147 to 148
O=C(O)CCc1cn(Cc2ccc(OCCn3ncc4ccccc4c3=O)cc2)nc1-c1ccccc1 [Example 286, 3-[1-[4-[2-[1-oxophthalazin-2(1H)-yl]ethoxy]benzyl]-3-phenyl-1H-pyrazol-4-yl]propionic acid]	155 to 156
O=C(O)CCc1cn(Cc2ccc(OCc3ccc(-c4ccccc4)nc3)cc2)nc1-c1ccccc1 [Example 288, 3-[3-phenyl-1-[4-(6-phenyl-3-pyridylmethoxy)benzyl]-1H-pyrazol-4-yl]propionic acid]	155 to 156
O=C(O)CCc1cn(Cc2ccc(OCc3cncc(-c4ccccc4)c3)cc2)nc1-c1ccccc1 [Example 290, 3-[3-phenyl-1-[4-(5-phenyl-3-pyridylmethoxy)benzyl]-1H-pyrazol-4-yl]propionic acid]	161 to 162
Cn1c(COc2ccc(Cn3cc(CCC(=O)O)c(-c4ccccc4)n3)cc2)nc2ccccc21 [Example 292, 3-[1-[4-(1-methyl-1H-benzimidazol-2-ylmethoxy)benzyl]-3-phenyl-1H-pyrazol-4-yl]propionic acid]	225 to 226
O=C(O)CCc1cn(Cc2ccc(OCc3ccc4ccccc4n3)cc2)nc1-c1ccc(F)cc1 [Example 294, 3-[3-(4-fluorophenyl)-1-[4-(2-quinolylmethoxy)benzyl]-1H-pyrazol-4-yl]propionic acid]	178 to 179
O=C(O)CCc1cn(Cc2ccc(OCc3ccc(-c4ccccc4)cn3)cc2)nc1-c1ccc(F)cc1 [Example 296, 3-[3-(4-fluorophenyl)-1-[4-(5-phenyl-2-pyridylmethoxy)benzyl]-1H-pyrazol-4-yl]propionic acid]	162 to 163
O=C(O)CCc1cn(Cc2ccc(OCc3ccc(-c4ccccc4)cn3)cc2)nc1-c1ccccc1 [Example 302, 3-[3-phenyl-1-[4-(5-phenyl-2-pyridylmethoxy)benzyl]-1H-pyrazol-4-yl]propionic acid]	149 to 150
O=C(O)CCc1cn(Cc2ccc(OCc3csc(-c4ccccc4)n3)cc2)nc1-c1ccccc1 [Example 304, 3-[3-phenyl-1-[4-(2-phenyl-4-thiazolylmethoxy)benzyl]-1H-pyrazol-4-yl]propionic acid]	132 to 133

Second part, the molecule after the results:

melting point [°C]	Structure (SMILES)
160 to 161	CCOc1nn(Cc2ccc(OCc3cn4c(-c5ccccc5)cccc4n3)cc2)cc1CCC(=O)O [Example 232, 3-[3-ethoxy-1-[4-(5-phenylimidazo[1,2-a]pyridin-2-ylmethoxy)benzyl]-1H-pyrazol-4-yl]propionic acid]
138 to 139	CCOc1nn(Cc2ccnc(OCc3nc(-c4ccco4)oc3C)c2)cc1CCC(=O)O [Example 234, 3-[3-ethoxy-1-[2-[2-(2-furyl)-5-methyl-4-oxazolylmethoxy]-4-pyridylmethyl]-1H-pyrazol-4-yl]propionic acid]
160 to 161	CCOc1nn(Cc2ccnc(OCc3cn4c(Cl)cccc4n3)c2)cc1CCC(=O)O [Example 236, 3-[1-[2-(5-chloroimidazo[1,2-a]pyridin-2-ylmethoxy)-4-pyridylmethyl]-3-ethoxy-1H-pyrazol-4-yl]propionic acid]
177 to 178	CCOc1nn(Cc2ccnc(OCc3cn4c(-c5ccccc5)cccc4n3)c2)cc1CCC(=O)O [Example 238, 3-[3-ethoxy-1-[2-(5-phenylimidazo[1,2-a]pyridin-2-ylmethoxy)-4-pyridylmethyl]-1H-pyrazol-4-yl]propionic acid]
92 to 93	CCOc1nn(Cc2ccc(OCc3cncc(-c4ccccc4)c3)cc2)cc1CCC(=O)O [Example 240, 3-[3-ethoxy-1-[4-(5-phenyl-3-pyridylmethoxy)benzyl]-1H-pyrazol-4-yl]propionic acid]
123 to 124	CCOc1nn(Cc2cc(OCc3ccc4ccccc4n3)no2)cc1CCC(=O)O [Example 242, 3-[3-ethoxy-1-[3-(2-quinolylmethoxy)-5-isoxazolylmethyl]-1H-pyrazol-4-yl]propionic acid]
120 to 121	CCOc1nn(Cc2ccc(OCc3nc(-c4ccccc4)ccc3Cl)cc2)cc1CCC(=O)O [Example 244, 3-[1-[4-(3-chloro-6-phenyl-2-pyridylmethoxy)benzyl]-3-ethoxy-1H-pyrazol-4-yl]propionic acid]
95 to 96	CCOc1nn(Cc2ccc(OCc3cccc(-c4ccccc4)n3)cc2)cc1CCC(=O)O [Example 246, 3-[3-ethoxy-1-[4-(6-phenyl-2-pyridylmethoxy)benzyl]-1H-pyrazol-4-yl]propionic acid]
177 to 178	CCOc1nn(Cc2ccc(OCc3nc4ccccc4n3C)cc2)cc1CCC(=O)O [Example 248, 3-[3-ethoxy-1-[4-(1-methyl-1H-benzimidazol-2-ylmethoxy)benzyl]-1H-pyrazol-4-yl]propionic acid]
127 to 128	CCOc1nn(Cc2ccc(OCc3ccc(-c4ccccc4)cn3)cc2)cc1CCC(=O)O [Example 250, 3-[3-ethoxy-1-[4-(5-phenyl-2-pyridylmethoxy)benzyl]-1H-pyrazol-4-yl]propionic acid]
133 to 134	CCOc1nn(Cc2ccc(OCc3ccc4ccccc4n3)nc2)cc1CCC(=O)O [Example 252, 3-[3-ethoxy-1-[6-(2-quinolylmethoxy)-3-pyridylmethyl]-1H-pyrazol-4-yl]propionic acid]
121 to 122	CCOc1nn(Cc2ccc(OCc3csc(-c4ccccc4)n3)nc2)cc1CCC(=O)O [Example 254, 3-[3-ethoxy-1-[6-(2-phenyl-4-thiazolylmethoxy)-3-pyridylmethyl]-1H-pyrazol-4-yl]propionic acid]
133 to 134	CCOc1nn(Cc2ccc(OCc3nc(-c4ccccc4)oc3C)cn2)cc1CCC(=O)O [Example 258, 3-[3-ethoxy-1-[5-(5-methyl-2-phenyl-4-oxazolylmethoxy)-2-pyridylmethyl]-1H-pyrazol-4-yl]propionic acid]
125 to 126	CCOc1nn(Cc2ccc(OCc3nc(-c4ccccc4)oc3C)cc2)cc1CC(=O)O [Example 260, 3-ethoxy-1-[4-(5-methyl-2-phenyl-4-oxazolylmethoxy)benzyl]-1H-pyrazol-4-ylacetic acid]
155 to 156	CCOc1nn(Cc2ccc(OCc3nc(-c4ccco4)oc3C)nc2)cc1CC(=O)O [Example 264, 3-ethoxy-1-[6-[2-(2-furyl)-5-methyl-4-oxazolylmethoxy]-3-pyridylmethyl]-1H-pyrazol-4-ylacetic acid]
123 to 124	Cc1oc(-c2ccccc2)nc1COc1ccc(Cn2cc(CCC(=O)O)c(-c3ccccc3)c2)cn1 [Example 268, 3-[1-[6-(5-methyl-2-phenyl-4-oxazolylmethoxy)-3-pyridylmethyl]-4-phenyl-3-pyrrolyl]propionic acid]
126 to 127	CCOc1cc(Cn2cc(CCC(=O)O)c(-c3ccccc3)c2)cc(OCc2nc(-c3ccccc3)oc2C)c1 [Example 272, 3-[1-[3-ethoxy-5-(5-methyl-2-phenyl-4-oxazolylmethoxy)benzyl]-4-phenyl-3-pyrrolyl]propionic acid]
166 to 167	O=C(O)CCc1cn(Cc2ccc(OCc3ccc4ccccc4n3)nc2)nc1-c1ccccc1 [Example 298, 3-[3-phenyl-1-(6-(2-quinolylmethoxy)-3-pyridylmethyl]-1H-pyrazol-4-yl]propionic acid]
88 to 89	CCOC(=O)CCc1cn(Cc2cccnc2OCc2csc(-c3ccccc3)n2)nc1-c1ccccc1 [Example 299, ethyl 3-[3-phenyl-1-[2-(2-phenyl-4-thiazolylmethoxy)-3-pyridylmethyl]-1H-pyrazol-4-yl]propionate]
107 to 108	O=C(O)CCc1cn(Cc2ccc(OCc3csc(-c4ccccc4)n3)nc2)nc1-c1ccccc1 [Example 300, 3-[3-phenyl-1-[6-(2-phenyl-4-thiazolylmethoxy)-3-pyridylmethyl]-1H-pyrazol-4-yl]propionic acid]
